Results from patent US9656953B2, “Inhibition of cell proliferation” (University of South Florida, priority 2005, dated 2017).
Entries after “also recorded” stand apart in the source; their conditions may differ. Like-named read-outs stand apart in the source and are kept apart here.

Key:
Rb:Raf-1 binding = target: T1, Rb:Raf-1 binding (Homo sapiens, UniProt P04049+P06400); assay: GST-Rb/GST-Raf-1 ELISA; conditions: for Rb:Raf-1 binding inhibitory activity in words: ELISA; for fold less active compared to 3a: IC50 ratio to 3a
T1 construct: a glutathione S-transferase (GST) Raf-1 (1-149aa) overnight at 4° C; made in house
T1 sequence (P04049 1-149 limits assumed): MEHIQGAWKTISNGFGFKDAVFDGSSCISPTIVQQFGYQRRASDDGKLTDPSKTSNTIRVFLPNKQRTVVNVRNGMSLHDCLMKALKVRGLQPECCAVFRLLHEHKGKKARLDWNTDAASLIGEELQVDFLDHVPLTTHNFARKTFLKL
T1 sequence (P06400 whole entry): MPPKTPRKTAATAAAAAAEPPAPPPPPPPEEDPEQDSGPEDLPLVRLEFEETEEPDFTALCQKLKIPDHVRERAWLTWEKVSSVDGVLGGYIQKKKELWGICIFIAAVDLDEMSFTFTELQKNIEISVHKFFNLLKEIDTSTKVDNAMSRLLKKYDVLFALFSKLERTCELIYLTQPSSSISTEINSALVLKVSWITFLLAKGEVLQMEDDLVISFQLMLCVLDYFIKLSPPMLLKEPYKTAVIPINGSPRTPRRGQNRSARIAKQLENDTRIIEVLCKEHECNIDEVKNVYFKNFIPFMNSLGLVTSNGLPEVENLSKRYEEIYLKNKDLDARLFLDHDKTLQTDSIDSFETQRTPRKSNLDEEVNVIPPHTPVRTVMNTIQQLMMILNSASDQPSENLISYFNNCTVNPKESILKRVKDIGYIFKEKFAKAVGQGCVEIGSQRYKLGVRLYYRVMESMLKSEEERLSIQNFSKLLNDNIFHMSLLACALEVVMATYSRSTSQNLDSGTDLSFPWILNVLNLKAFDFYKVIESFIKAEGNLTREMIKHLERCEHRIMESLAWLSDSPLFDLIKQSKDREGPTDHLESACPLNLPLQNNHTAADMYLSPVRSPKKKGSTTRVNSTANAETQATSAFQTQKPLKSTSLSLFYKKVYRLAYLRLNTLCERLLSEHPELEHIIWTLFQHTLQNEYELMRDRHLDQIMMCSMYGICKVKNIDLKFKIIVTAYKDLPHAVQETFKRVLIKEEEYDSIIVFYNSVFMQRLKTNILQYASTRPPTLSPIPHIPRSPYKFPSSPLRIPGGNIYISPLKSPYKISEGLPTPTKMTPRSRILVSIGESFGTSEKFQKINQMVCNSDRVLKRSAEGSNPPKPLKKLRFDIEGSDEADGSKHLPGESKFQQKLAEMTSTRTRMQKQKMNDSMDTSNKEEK
Procedure: In vitro library screening assays. Enzyme Linked ImmunoSorbent Assay (ELISA) 96-well plates were coated with 1 μg/mL of a glutathione S-transferase (GST) Raf-1 (1-149aa) overnight at 4° C. Subsequently the plates were blocked and GST Rb at 20 μg/mL was rotated at room temperature (RT) for 30 minutes in the presence or absence of the compounds at 20 micromolar (μM). GST-Rb +/− compounds were then added to the plate and incubated for 90 minutes (min) at 37° C. The amount of Rb bound to Raf-1 was detected by Rb polyclonal antibody (Santa Cruz Biotechnology, Santa Cruz, Calif.) 1:1000 incubated for 60 min at 37° C. Donkey-anti-rabbit-IgG-HRP (1:10,000) was added to the plate and incubated at 37° C. for 60 minutes. The color was developed with orthophenylenediamine (Sigma, St. Louis, Mo.) and the reaction was terminated with 3 molar (M) H2SO4. Absorbance was read at 490 nanometers (nm). To determine disruption of Rb to E2F1, Phb, or HDAC1 the above protocol was used with the exception of coating GST Rb on the ELISA plate and adding the drugs in the presence or absence of GST E2F1, Phb, or HDAC1. […] Prohibitin monoclonal antibody was used at 1:1000 to detect the amount of Rb bound to Prohibitin. For disruption of MEK-Raf-1 binding ELISAs, Raf-1 1 microgram/milliliter (μg/mL) was coated on the plate and GST-MEK (20 μg/mL) was incubated +/− the compounds for 30 minutes at room temperature. Mek1 polyclonal antibody was used at 1:1000 to detect the binding of Raf-1 to Mek1. The IC50 concentrations for the Rb:Raf-1 inhibitors were determined by plotting with Origin 7.5 software (Origin, Northampton, Mass.).
A screen was developed to identify small molecule inhibitors of the Rb:Raf-1 interaction. A diversity set, comprising 1981 compounds (National Cancer Institute, Bethesda, Md.) was examined using a glutathione S-transferase-retinoblastoma/glutathione S-transferase-Raf-1 kinase Enzyme-Linked ImmunoSorbent Assay screen (GST-Rb/GST-Raf-1 ELISA).

[1] = tested on: Human aortic endothelial cells (HAECs); assay: Matrigel angiogenic tubule formation; assay type: cell-based; conditions: 20 μM
Procedure: Matrigel assays. […] A total of 100 μl of thawed Matrigel was added to 96-well tissue culture plates, followed by incubation at 37° C. for 60 minutes to allow polymerization. […] Capillary tube formation assessed by using a Leica DMIL phase contrast microscope.
An experiment was performed to determine whether angiogenic tubule formation could be inhibited by the disclosed compounds.

[2] = target: binding of Raf-1 to GST Rb beads (Homo sapiens, UniProt P04049+P06400); assay: GST pull-down, U937 lysates; conditions: 20 μM, asynchronous U937 lysates, western blotting
binding of Raf-1 to GST Rb beads, sequence (P06400 whole entry): as above
binding of Raf-1 to GST Rb beads, sequence (P04049 whole entry): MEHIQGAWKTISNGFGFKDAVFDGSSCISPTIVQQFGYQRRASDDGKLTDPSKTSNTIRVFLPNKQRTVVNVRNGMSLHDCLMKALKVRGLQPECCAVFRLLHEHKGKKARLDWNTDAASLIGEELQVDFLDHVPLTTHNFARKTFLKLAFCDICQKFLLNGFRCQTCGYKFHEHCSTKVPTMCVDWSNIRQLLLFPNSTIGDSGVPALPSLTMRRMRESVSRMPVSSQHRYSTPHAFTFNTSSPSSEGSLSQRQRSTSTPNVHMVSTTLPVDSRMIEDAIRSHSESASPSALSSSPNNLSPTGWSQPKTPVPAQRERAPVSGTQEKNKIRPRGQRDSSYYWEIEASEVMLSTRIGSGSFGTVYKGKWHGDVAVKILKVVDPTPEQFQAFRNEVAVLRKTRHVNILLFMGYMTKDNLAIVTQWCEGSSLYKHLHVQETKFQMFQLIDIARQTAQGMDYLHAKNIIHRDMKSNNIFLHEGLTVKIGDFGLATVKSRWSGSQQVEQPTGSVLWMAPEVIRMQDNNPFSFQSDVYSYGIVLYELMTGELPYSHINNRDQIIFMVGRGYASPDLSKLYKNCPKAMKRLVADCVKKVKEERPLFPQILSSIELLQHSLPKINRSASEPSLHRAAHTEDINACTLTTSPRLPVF
Procedure: First, 200 micrograms (μg) of U937 asynchronous lysates were pre-incubated with 10 μM of the indicated drugs or 1 μM of the Raf-1 peptide for 30 minutes at 4° C. Next, 200 μg of the U937 lysates were incubated with glutathione beads carrying an equal amount of the GST fusion proteins in 2001 of protein binding buffer (20 mM Tris [pH 7.5], 50 mM KCL, 0.5 mM EDTA, 1 mM dithiothreitol, 0.5% NP-40, 3 mg of bovine serum albumin/mL) at 4° C. for 2 h.
Asynchronous U937 lysates were incubated with GST-Rb beads in the presence or absence of the selected compounds or an 8 amino acid Raf-1 peptide and the binding of Raf-1 assessed by western blotting.

[3] = target: binding of Raf-1 to Rb in U937 cells (Homo sapiens, UniProt P04049+P06400); assay: Immunoprecipitation-Western blot, serum stimulated U937 cells; conditions: U937 cells serum stimulated 2 hours, 20 μM
binding of Raf-1 to Rb in U937 cells, sequence (P06400 whole entry): as the sequence (P06400 whole entry) above
binding of Raf-1 to Rb in U937 cells, sequence (P04049 whole entry): as the sequence (P04049 whole entry) above
Procedure: Lysate preparation, pmmunoprecipitation, and pestern plotting. Lysates from cells treated with different agents were prepared by NP-40 lysis as described earlier (Wang 1998). […] Physical interaction between proteins in vivo was analyzed by immunoprecipitation—Western blot analyses with 200 μg of lysate with 1 μg of the indicated antibody as previously described (Wang 1998). Polyclonal E2F1 and Cyclin D were obtained from Santa Cruz Biotechnology. Monoclonal Rb and Raf-1 were supplied by BD Transduction laboratories (San Jose, Calif.). Polyclonal antibodies to phospho-Rb (807,811) phospho-MEK1/2, MEK1/2, phospho-Erk1/2 and ERK1/2 were supplied by Cell Signaling (Danvers, Mass.).
U937 cells were serum starved for 48 hours and subsequently serum stimulated for 2 hours in the presence or absence of 20 μM of the compounds.

[4] = tested on: Rb phosphorylation (serines 807 and 811); assay: Western blot of Rb phosphorylation, A549 cells; assay type: cell-based, human; conditions: cells treated 18 hours, western blotting
Excerpt: Lysate preparation, pmmunoprecipitation, and pestern plotting.

[5] = inhibition of Rb:Raf-1 binding, compound at 20 μM, read-out: % Inhibition at 20 μM
[6] = concentration that inhibits the Rb:Raf-1 binding by 50%, triplicate, read-out: IC50 (nM), inhibition of the Rb:Raf-1 binding
[7] = inhibition of Rb:Raf-1 binding, compound at 20 μM, 20 µM
[8] = inhibition of Rb:Raf-1 binding, compound at 20 μM
[9] = values in μM, read-out: IC50, Rb:Raf-1 binding
[10] = IC50 (nM), inhibition of the Rb:Raf-1 binding, concentration that inhibits the Rb:Raf-1 binding by 50%, triplicate

Structure (SMILES) | inhibition at 20 µM (Rb:Raf-1 binding; [5]) [%] | other results
Cl.N=C(N)SCc1ccccc1 [Compound 3r] | 0 | Rb:Raf-1 binding inhibitory activity in words (Rb:Raf-1 binding): inactive
Cl.N=C(N)SCc1ccc(Cl)c(Cl)c1 [Compound 3h] | 81 | fold less active compared to 3a (Rb:Raf-1 binding): 50 fold; IC50 (Rb:Raf-1 binding; [6]): 3900 nM
N=C(N)SC(c1ccccc1)c1ccccc1 [Compound 4d] | 21 | –
N=C(N)SCc1cc(Cl)ccc1Cl [Compound 3i] | 79 | IC50 (Rb:Raf-1 binding; [6]): 2110 ± 180 nM
N=C(N)SCc1ccc(C(F)(F)F)cc1C(F)(F)F [Compound 3j] | 53 | –
COc1ccc(CSC(=N)N)cc1 [Compound 3o] | 45 | –
N=C(N)SCc1ccc(C(F)(F)F)cc1 [Compound 3n] | 46 | –
Cc1ccc(CSC(=N)N)cc1 [Compound 3p] | 44 | –
N=C(N)NCc1ccc(Cl)cc1 [Compound 6f] | – | % Inhibition at 20 μM (Rb:Raf-1 binding; [7]): 16%
COc1cc(CSC(=N)N)cc(OC)c1OC [Compound 3q] | 20 | –
CCC(SC(=N)N)c1ccc(Cl)cc1Cl (stereo not shown) [Compound 4c] | 100 | IC50 (Rb:Raf-1 binding; [6]): 567 nM
Clc1ccc(CSc2nnc[nH]2)c(Cl)c1 [Compound 9a] | 92 | IC50 (Rb:Raf-1 binding; [6]): 97 nM
Cl.N=C(N)NCc1ccc(Cl)cc1 [Compound 6b] | – | % Inhibition at 20 μM (Rb:Raf-1 binding; [8]): 61%
N=C(N)SCc1ccc(Cl)c(F)c1 [Compound 3c] | 100 | IC50 (Rb:Raf-1 binding; [9]): 81 nM
Cl.N=C(N)NCc1ccccc1Cl [Compound 6d] | – | % Inhibition at 20 μM (Rb:Raf-1 binding; [8]): 59%
N=C(N)SCc1ccc2c(c1)C(=O)c1ccccc1C2=O [Compound 5e] | 56 | –
N=C(N)SCc1ccccc1Cl [Compound 3b, 2-chlorobenzylisothiourea] | 100 | IC50 (Rb:Raf-1 binding; [9]): 575 nM
N=C(N)NCc1ccc(Cl)cc1 [Compound 6a] | – | IC50 (Rb:Raf-1 binding; [6]): 539 nM; % Inhibition at 20 μM (Rb:Raf-1 binding; [7]): 100%
CC(SC(=N)N)c1ccc(Cl)c(Cl)c1 (stereo not shown) [Compound 4b] | 99 | IC50 (Rb:Raf-1 binding; [6]): 510 ± 116 nM

Structure (SMILES) | inhibition at 20 µM (Rb:Raf-1 binding; [5]) [%] | other results
N=C(N)SCc1ccc2ccccc2n1 [Compound 5d] | 76 | –
Cl.N=C(N)SCc1c(Cl)cc(Cl)cc1Cl [Compound 3t] | 0 | Rb:Raf-1 binding inhibitory activity in words (Rb:Raf-1 binding): inactive
N=C(N)SCc1ccc(Cl)cc1 [Compound 3g, 4-chlorobenzylisothiourea] | 88 | IC50 (Rb:Raf-1 binding; [6]): 274 nM
N=C(N)SCc1ccc2ccccc2c1Br [Compound 5a] | 100 | IC50 (Rb:Raf-1 binding; [6]): 80 nM
N=C(N)NCc1ccccc1Cl [Compound 6e] | – | % Inhibition at 20 μM (Rb:Raf-1 binding; [8]): 25%
N=C(N)SCc1ccc2c(c1)OCO2 [Compound 3l] | 49 | –
N=C(N)SCc1ccc(Cl)c(C(F)(F)F)c1 [Compound 3f] | 94 | IC50 (Rb:Raf-1 binding; [9]): 312 nM
Cl.N=C(N)SCc1c(Cl)cccc1Cl [Compound 3s] | 0 | Rb:Raf-1 binding inhibitory activity in words (Rb:Raf-1 binding): inactive
N=C(N)SCc1ccc([N+](=O)[O-])cc1 [Compound 3m] | 46 | –
N=C(N)SCc1c2ccccc2cc2ccccc12 [Compound 5f] | 22 | –
N=C(N)SCc1ccc(Cl)cc1Cl [(1), 2,4-dichlorobenzyl carbamimidothioate] | – | IC50 (Rb:Raf-1 binding; [10]): 81 ± 4 nM; inhibition at 20 µM (Rb:Raf-1 binding; read-out: % Inhibition at 20 μM, inhibition of Rb:Raf-1 binding, compound at 20 μM): 100%; angiogenic tubule formation in matrigel [1]: inhibit angiogenic tubule formation; also recorded: significantly inhibited the angiogenic tubule formation; binding of Raf-1 to GST Rb beads [2]: inhibited the binding of GST Rb beads to endogenous Raf-1; binding of Raf-1 to Rb in intact cells [3]: inhibited the binding of Raf-1 to Rb significantly
CNC(=O)c1cc(Oc2ccc(NC(=O)Nc3ccc(Cl)c(C(F)(F)F)c3)cc2)ccn1 [BAY43-9006, sorafenib, reference compound] | – | Rb phosphorylation [4]: did not seem to have any effect on Rb phosphorylation
Cl.N=C(N)SCc1cccc(Cl)c1Cl [Compound 3d] | 100 | fold less active compared to 3a (Rb:Raf-1 binding): more than 2 fold; IC50 (Rb:Raf-1 binding; [6]): 164 nM
CC(SC(=N)N)c1ccc(Cl)cc1Cl (stereo not shown) [Compound 4a] | 100 | IC50 (Rb:Raf-1 binding; [6]): 322 nM
N=C(N)SCc1cccc(Cl)c1 [Compound 3e, 3-chlorobenzylisothiourea] | 100 | IC50 (Rb:Raf-1 binding; [9]): 230 nM
CC(C)(C)c1ccc(CSC(=N)N)cc1 [Compound 3k] | 52 | –
N=C(N)SC(Cc1ccccc1)c1ccc(Cl)cc1Cl (stereo not shown) [Compound 4e] | 32 | –
N=C(N)SCc1ccncc1 [Compound 5b] | 94 | IC50 (Rb:Raf-1 binding; [6]): 2630 ± 330 nM
Cl.N=C(N)SCc1ccc(Cl)c2ccccc12 [Compound 5c] | – | IC50 (Rb:Raf-1 binding; [10]): 1900 nM; fold reduction of activity relative to 5a (Rb:Raf-1 binding; IC50 ratio to 5a): 24 fold; % Inhibition at 20 μM (Rb:Raf-1 binding; [8]): 93%

The next lines start with results.

inhibition at 20 µM (Rb:Raf-1 binding; [5]) [%] | Structure (SMILES) | other results
47 | Clc1ccc(CSC2=NCCN2)cc1 [Compound 9g] | –
34 | CNc1nc(-c2ccc(Cl)cc2)cs1 [Compound 7f] | –
22 | Nc1nc(-c2ccccc2)cs1 [Compound 7j] | –
53 | CNc1nc(-c2ccc(F)cc2F)cs1 [Compound 7a] | –
76 | Nc1nnc(SCc2ccc(Cl)cc2)[nH]1 [Compound 9d] | –
37 | CNc1scc(-c2ccc(Cl)cc2)[n+]1C [Compound 8a] | –
81 | Clc1ccc(CSc2nnc[nH]2)cc1 [Compound 9c] | –
45 | Clc1ccc(CSC2=NCCN2)c(Cl)c1 [Compound 9i] | –
39 | CNc1nc(-c2ccccc2)cs1 [Compound 7d] | –
43 | CNc1nc(-c2ccc(F)cc2)cs1 [Compound 7c] | –
22 | CNc1scc(-c2ccccc2)[n+]1C [Compound 8b] | –
68 | Clc1ccc(CSc2ncc[nH]2)c(Cl)c1 [Compound 9e] | –
29 | Nc1nc(-c2ccc(Cl)cc2)cs1 [Compound 7i] | –
5 | CNc1scc(-c2ccc(F)cc2F)[n+]1C [Compound 8d] | –
40 | Clc1ccc(CSc2nc3ccccc3[nH]2)c(Cl)c1 [Compound 9j] | –
33 | CNc1nc(-c2ccc(Cl)cc2Cl)cs1 [Compound 7g] | –
67 | Clc1ccc(CSc2ncc[nH]2)cc1 [Compound 9f] | –
32 | Nc1nc(-c2ccc(F)cc2)cs1 [Compound 7h] | –
19 | CNc1scc(-c2ccc(F)cc2)[n+]1C [Compound 8c] | –
91 | Nc1nnc(SCc2ccc(Cl)cc2Cl)[nH]1 [Compound 9b] | IC50 (Rb:Raf-1 binding; [6]): 131 nM
61 | N=C(N)NCc1ccc(Cl)cc1Cl [Compound 6c] | –
45 | Nc1nc(-c2ccc(Cl)cc2Cl)cs1 [Compound 7b] | –
39 | Nc1nc(-c2ccc(F)cc2F)cs1 [Compound 7e] | –
